According to patent US10850274B2, “Microfluidic assisted perfusion devices” (The Regents of the University of California, priority 2015, dated 2020):

Legend:
[1] = test system: MCF7 spheroids; assay: Change in MCF7 spheroid size after Doxorubicin treatment in tumor-on-a-chip device; assay type: cell-based; conditions: for decrease in spheroid area: 3 days (D8 area normalized to D5)
Method: HUVECs and MCF7 spheroids were encapsulated within GelMA hydrogels. The MCF spheroids were passed through a cell strainer having 100 μm pore size (Corning) to eliminate single cells and small spheroids. Around 50 spheroids with a diameter of ˜200 μm were dispersed in 5 mL of PBS containing 2 million HUVEC cells. The mixture was centrifuged for 3 minutes at 800 rpm. The supernatant was aspirated and 100 μL of 10% GelMA solution was added to the cell pellet. The cells were re-suspended gently using a pipette before the addition of 0.01% ascorbic acid (antioxidant) and 2 μM LAP (photoinitiator) to the solution. This solution was again mixed gently, drawn into a syringe, and injected into the microfluidic device (FIG. 8, step G).
This device was placed onto a transparency film photomask containing an ellipse pattern and mounted onto a microscope stage (FIG. 8, steps H-I). Using the stage controller of the microscope, the position of the fluidic device was moved to locate individual MCF7 spheroids surrounded by HUVECs under bright field illumination. Each location was exposed to UV light with an excitation and emission wavelengths of approximately 358 and 463 nm, respectively, for 18 seconds. Several locations were photopolymerized before flushing the device with PBS containing 4% Penicillin/Streptomycin. Mixed Media (MM) containing 50% GM and 50% HM was subsequently injected into the device and the GelMA structures containing MCF7 spheroids and HUVECs were cultured at 37° C. and 10% CO2.
Brightfield images of the GelMA hydrogels containing the spheroids and HUVECs were recorded as a function of culture time (1-5 days) to examine their growth post-encapsulation. The area of the spheroid was quantified by tracing the boundary of the spheroid using the free-hand selection tool on ImageJ. […]
The potential of the device as a drug screening platform was assessed by analyzing the effects of Doxorubicin on HUVEC barrier and the tumor spheroids. […] To quantify the effects of Doxorubicin, the changes in spheroid size was analyzed before and after treatment with varying concentrations of the drug.

[2] = test system: HUVECs; assay: Effect of Doxorubicin on HUVEC endothelial barrier around GelMA structures
Method: HUVECs and MCF7 spheroids were encapsulated within GelMA hydrogels.
Doxorubicin (Cat. No. D1515, Sigma-Aldrich) was weighed and dissolved in DMSO to achieve a concentration of 100 mg/mL. This solution was distributed into small aliquots and stored in −20° C. The stock solution was thawed and diluted to 100 μg/mL in pre-warmed MM (˜37° C.) and sterilized using a DMSO-resistant syringe filter (Pall Corporations). This 100 μg/mL solution was further diluted in MM to acquire doxorubicin concentrations of 1 and 10 μg/mL used herein.
The potential of the device as a drug screening platform was assessed by analyzing the effects of Doxorubicin on HUVEC barrier and the tumor spheroids. Cell laden GelMA structures, cultured for 5 days, were exposed to different concentrations of Doxorubicin (1, 10, and 100 μg/mL) for 3 days.

[3] = test system: neonatal mouse cardiomyocytes
Method: Isolated primary neonatal cardiomyocytes were mixed with 8.5% wt/vol GelMa solution containing 0.01% wt/vol of ascorbic acid and 2 mM lithium phenyl-2,4,6-trimethylbenoylphosphinate (LAP). This solution was injected into the fluidics chamber (see FIG. 3D) and a dark transparency mask containing the clear ellipse patterns was placed under the circular chamber of the device. The GelMa solution was photo-polymerized using a UV light source with an excitation wavelength of 365±40 nm (see FIG. 3E). The regions of the hydrogel precursor solution exposed to UV light polymerized rapidly, thereby forming the microtissues with cells encapsulated within (see FIG. 3E). The unreacted hydrogel precursor solution was removed from the fluidics chamber by injecting PBS in excess (see FIG. 3F). Thus, the 3D device with patterned cardiac-microtissues between hydrogels was created (see FIG. 3G). The device was then perfused with cardiomyocyte growth media and incubated at 37° C. and 10% CO2 culture conditions. […]
To quantify the forces generated by the cardiomyocytes, the propagation of forces originating from the GelMA structures were exploited to PAm hydrogels. […] In addition, a measured value of 8.5 kPa was used for the elastic modulus of the PAm hydrogel and 0.45 for Poisson's ratio.
By treating the PAm hydrogel as a 3 dimensional block tethered at the bottom in mechanical equilibrium, a finite element (FE) approach was used to solve a series of electrostatics equations. […] To obtain the input for the boundary condition at the top surface of the gel, the displacement of the hydrogel was quantified by tracking the fluorescent particles embedded within the network using particle image velocimetry (PIV). […]
Using this approach, fluorescent images were obtained of the green beads embedded within PAm at a frequency of 9 frames per second in order to capture the contraction profile of the cardiomyocytes at 20× magnification. […] Using the FE approach, the traction stress field caused by the cellular forces was calculated.

SMILES | spheroid growth less than those cultured in the absence of the drug ([1]; 1 μg/mL Doxorubicin, 3 days, growth still observed) | decrease in spheroid area ([1]; 10 μg/mL Doxorubicin) | decrease in spheroid area ([1]; 100 μg/mL Doxorubicin) | presence of endothelial barrier ([2]; at and above 10 μg/mL of Doxorubicin, D8) | endothelial barrier ([2]; high doses of Doxorubicin (>10 μg/mL)) | endothelial barrier (cytotoxicity to HUVECs) ([2]; upon exposure to Doxorubicin, 3 days) | magnitude of contraction ([3]; addition of epinephrine (0.1 μg/mL)) | ratio of residual stress in the presence of epinephrine to absence of epinephrine ([3]; multiple microtissues, cultured 7 days, value <1 = decrease, epinephrine 0.1 μg/mL) | ratio of force amplitude in the presence of epinephrine to absence of epinephrine ([3]; multiple microtissues, cultured 7 days, value >1 = increase, epinephrine 0.1 μg/mL)
COc1cccc2c1C(=O)c1c(O)c3c(c(O)c1C2=O)C[C@@](O)(C(=O)CO)C[C@@H]3O[C@H]1C[C@H](N)[C@H](O)[C@H](C)O1 [Doxorubicin] | ~20% | ~7% | ~15% | lack thereof | loss of the endothelial barrier | disappeared |  |  | 
CNC[C@H](O)c1ccc(O)c(O)c1 [epinephrine] |  |  |  |  |  |  | increased | ~0.9 | ~1.4
